Reference: ChEMBL document CHEMBL5500417, “Discovery of Novel 2-Oxoacetamide Derivatives as B3GAT3 Inhibitors for the Treatment of Hepatocellular Carcinoma” (J Med Chem, 2024)

What was measured:
MHCC97H = test: cells; settings: Homo sapiens, 72 h
Description: Antitumor activity against human MHCC97H cells assessed as inhibition of cell growth measured after 72 hrs by CCK-8 assay

HCCLM3 = test: cells; settings: Homo sapiens, HCCLM3, 72 h
Description: Antitumor activity against human HCCLM3 cells assessed as inhibition of cell growth measured after 72 hrs by CCK-8 assay

SMILES | IC50 (MHCC97H) [µM] | IC50 (HCCLM3) [µM]
Cc1ccc(N2CCC(NC(=O)C(=O)c3c[nH]c4ccc(C)cc34)C2=O)c(Cl)c1 (stereo not given) | 52.8 | 53.9
Cc1ccc(N2CCC(NC(=O)C(=O)c3c[nH]c4ccc(Br)cc34)C2=O)cc1Cl (stereo not given) | 12 | > 80
Cc1ccc(C(=O)N2CCC(NC(=O)C(=O)c3c[nH]c4ccc(Br)cc34)C2)c(Cl)c1 (stereo not given) | 13 | 21.3
O=C(NC1CCN(c2ccc(OC(F)(F)F)cc2)C1=O)C(=O)c1c[nH]c2ccc(Br)cc12 (stereo not given) | 15.3 | 18.6
Cc1ccc(N2CCC(NC(=O)C(=O)c3c[nH]c4ccc(Cl)cc34)C2=O)c(Cl)c1 (stereo not given) | 18.4 | 31
Cc1ccc(C(=O)N2CCC(C)(NC(=O)C(=O)c3c[nH]c4ccc(Br)cc34)CC2)c(Cl)c1 | 21.3 | 22.2
Cc1ccc(C(=O)N(C)C2CCN(C(=O)C(=O)c3c[nH]c4ccc(Br)cc34)CC2)c(Cl)c1 | 11.8 | 22.2
Cc1ccc(C(=O)NC2CCN(C(=O)C(=O)c3c[nH]c4ccc(Br)cc34)C2)c(Cl)c1 (stereo not given) | 19.4 | 30.8
Cc1ccc(C(=O)NC2CCN(C(=O)C(=O)c3c[nH]c4ccc(Br)cc34)CC2)c(Cl)c1 | 61.5 | 60.8
O=C(NC1CCN(c2ccc(F)cc2)C1=O)C(=O)c1c[nH]c2ccc(Br)cc12 (stereo not given) | 11.8 | 24.9
Cc1ccc(N2CCC(NC(=O)C(=O)c3c[nH]c4ccccc34)C2=O)c(Cl)c1 (stereo not given) | 52.7 | 60
Cc1ccc(C(=O)NC2(C)CCN(C(=O)C(=O)c3c[nH]c4ccc(Br)cc34)CC2)c(Cl)c1 | 27.3 | 59.2
Cc1ccc(N2CCC(NC(=O)CC(=O)Nc3ccc(-c4ccccc4)cc3)C2=O)c(Cl)c1 (stereo not given) | 54.7 | 60.4
Cc1ccc(N2CCC(NC(=O)C(=O)c3c[nH]c4ccc(N)cc34)C2=O)c(Cl)c1 (stereo not given) | > 80 | > 80
Cc1ccc(C(=O)N2CCC(NC(=O)C(=O)c3c[nH]c4ccc(Br)cc34)CC2)c(Cl)c1 | 28.1 | 1530
Cc1ccc(N2CCC(NC(=O)CC(=O)Nc3ccc4c(c3)Cc3ccccc3-4)C2=O)c(Cl)c1 (stereo not given) | > 80 | 57.3
Cc1ccc(N2CCC(NC(=O)C(=O)c3c[nH]c4ccc(C#N)cc34)C2=O)c(Cl)c1 (stereo not given) | 33.7 | 55.8
COc1ccc2[nH]cc(C(=O)C(=O)NC3CCN(c4ccc(C)cc4Cl)C3=O)c2c1 (stereo not given) | 37.8 | 34.7
Cc1ccc(N2CCC(NC(=O)C(=O)Nc3ccc4c(c3)OCCO4)C2=O)c(Cl)c1 (stereo not given) | 14.5 | 12.2
Cc1ccc(N2CCC(NC(=O)C(=O)Nc3ccc4c(c3)C(C)(C)c3ccccc3-4)C2=O)c(Cl)c1 (stereo not given) | 9.7 | > 80
Cc1ccc(N2CCC(NC(=O)C(=O)NC3CCc4ccccc43)C2=O)c(Cl)c1 (stereo not given) | > 80 | 61.4
COC(=O)c1ccc2c(C(=O)C(=O)NC3CCN(c4ccc(C)cc4Cl)C3=O)c[nH]c2c1 (stereo not given) | 46.8 | 54.8
Cc1ccc(N2CCC(NC(=O)C(=O)c3c[nH]c4ccc(O)cc34)C2=O)c(Cl)c1 (stereo not given) | 72.2 | > 80
O=C(NC1CCN(c2ccccc2)C1=O)C(=O)c1c[nH]c2ccc(Br)cc12 (stereo not given) | > 80 | > 80
Cc1ccc(N2CCC(NC(=O)C(=O)N3CCCc4ccccc43)C2=O)c(Cl)c1 (stereo not given) | > 80 | > 80
Cc1ccc(C(=O)N2CCCC(NC(=O)C(=O)c3c[nH]c4ccc(Br)cc34)C2)c(Cl)c1 (stereo not given) | 17 | 31
Cc1ccc(N2CCC(NC(=O)C(=O)c3c[nH]c4ccc(Br)cc34)C2=O)cc1 (stereo not given) | > 80 | > 80
Cc1ccc(C(=O)N2CCN(C(=O)C(=O)c3c[nH]c4ccc(Br)cc34)CC2)c(Cl)c1 | 16.3 | 25.4
Cc1ccc(N2CCC(NC(=O)C(=O)Nc3ccc4c(c3)OCO4)C2=O)c(Cl)c1 (stereo not given) | 25.7 | 24.7
Cc1ccc(C(=O)N2[C@@H]3CC[C@H]2CN(C(=O)C(=O)c2c[nH]c4ccc(Br)cc24)C3)c(Cl)c1 | 18.5 | 26.7
